Test results as given in patent publication US20090118310A1, “Activated Cdc42-associated kinase (ACK) as a therapeutic target for Ras-induced cancer” (UNIVERSITY OF MEDICINE AND DENTISTRY OF NEW JERSEY, priority 2005, published 2009).
d = 2'-deoxy (DNA); r = 2'-OH (RNA)

Tests used:
[1] = test system: v-Ha-Ras-transformed cells; experiment: Cell cycle analysis of v-Ha-Ras-transformed cells by flow cytometry; format: cell-based; details: data not shown
Experimental: (§1) v-Ras-transformed cells (1×10^5) were seeded in a 35 mm dish and incubated under standard cell culture conditions overnight. Cells in DMEM were treated with Cellfectin, the sense strand of the siRNA:Cellfectin complex or the siRNA:Cellfectin complex for 3 hours. The medium was then replaced with DMEM containing 10% FCS and incubated for 21 hours at 37° C. Cells were harvested and used for Western blotting with specific antibodies or for cell cycle or caspase activation assays. For cell cycle and caspase activation assays, cells were resuspended in PBS containing FITC-VAD-fmk for 10 minutes at room temperature. The cells were then fixed with ice-cold 70% ethanol for 30 minutes at 4° C. Following a rinse with PBS, the cells were resuspended in PBS containing RNase (0.1 mg/mL) and then stained with propidium iodine (10 μg/mL) for 10 minutes at room temperature. Cellular fluorescence from a sample of 15,000 cells was analyzed using a Coulter EPICS Profile II Flow Cytometer (Coulter Electronics, Miami, Fla.). Fluorescence excited at 488 nm was detected using a 525±20 band pass filter. Histograms were analyzed using EPICS Workstation Software (version 4).

parental NIH 3T3 cells = experiment: Growth of parental NIH 3T3 cells after siRNA transfection (cell counting); format: cell-based; details: FIG. 2D; counted every 24 hours
Experimental: (§2) A pair of cRNA primers of 21 nucleotides (Dharmacon Research, Inc., Lafayette, Co.) corresponding to the 5′ noncoding of the ACK-1 cDNA (5′-CAUUACCCGCCUAUCUCAUdTdT-3′ and 5′-AUGAGAUAGGCGGGUAAUGdTdT-3′) were annealed to form siRNA (a 19-nucleotide duplex stem with two-nucleotide overhangs on either side) according to the instructions provided by the manufacturer. v-Ha-Ras-transformed or parental NIH 3T3 cells were seeded into 6- or 24-well plates and incubated overnight. The annealed double-stranded ACK siRNA (0.16, 0.4, or 0.8 nmol/L in DMEM) or the sense strand oligonucleotide of ACK siRNA (0.8 nmol/L) was complexed with Cellfectin. siRNA:Cellfectin complexes were added to the serum-free medium and incubated for 3 hours. Cells were then replenished with medium containing 10% FCS and incubated for another 21 hours or as indicated elsewhere. Cells were collected and counted using a hemocytometer; alternatively, cell lysates were prepared for Western blotting. Western blotting was done using ACK-1 antibodies. […]
(§3) After transfection with siRNA at different concentrations (in nmol/L), v-Ha-Ras transformed and parental NIH 3T3 cells were trypsinized and collected every 24 hours. Cell numbers were counted in triplicate.

[2] = test system: v-Ha-Ras-transformed NIH 3T3 cells; experiment: Growth of v-Ha-Ras-transformed cells after siRNA transfection (cell counting); format: cell-based; details: FIG. 2C; counted every 24 hours
Experimental: as §2, §3

ACK-1 = ACK-1 protein level after siRNA transfection (Western blot); format: cell-based
Experimental: as §2
After 24 hours of transfection, cells were collected and lysed with Laemmli SDS sample buffer. Proteins were separated by SDS-PAGE and the level of ACK-1 protein was determined by Western blotting using antibodies against ACK-1. […]

[3] = test system: v-Ha-Ras-transformed NIH 3T3 cells; experiment: Induction of apoptosis in v-Ha-Ras-transformed cells (PARP and ICAD cleavage, cytochrome c release, DNA fragmentation); format: cell-based; details: PARP cleavage, ICAD cleavage, chromosomal DNA fragmentation, FIGS. 3A-D
Experimental: as §1
v-Ras-transformed cells (5×10^5) were seeded in 35 mm dishes and incubated overnight under standard cell culture conditions. […]

[4] = target: T1, ACK-1 kinase (GST-ACKD, amino acids 101-441) (Homo sapiens, UniProt Q07912); experiment: In vitro kinase assay of GST-ACKD with MBP as substrate; format: biochemical; details: FIG. 4C dose response, FIG. 4D inhibitors at 200 nmol/L
T1 construct: made in house; host or cells: Escherichia coli BL21 (pGEX-2TH vector)
T1 sequence (Q07912 38-378 H250G): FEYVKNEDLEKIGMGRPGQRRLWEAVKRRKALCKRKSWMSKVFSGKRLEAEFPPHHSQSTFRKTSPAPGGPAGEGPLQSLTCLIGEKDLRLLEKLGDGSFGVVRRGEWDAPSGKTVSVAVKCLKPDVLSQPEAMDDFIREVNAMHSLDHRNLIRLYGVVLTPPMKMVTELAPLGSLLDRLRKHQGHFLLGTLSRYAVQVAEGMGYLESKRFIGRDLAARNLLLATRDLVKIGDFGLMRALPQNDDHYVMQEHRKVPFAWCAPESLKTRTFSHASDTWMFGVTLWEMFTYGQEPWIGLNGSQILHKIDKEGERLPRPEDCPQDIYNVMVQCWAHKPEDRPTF
Experimental: Escherichia coli BL21 cells transformed with pGEX-ACKD were grown at 30° C. to early logarithmic phase and protein expression was induced by adding 0.1 mmol/L isopropyl-L-thio-β-D-galactopyranoside. After 3 hours of incubation, cells were harvested, resuspended in lysis buffer [50 mmol/L Tris (pH 7.5), 0.73 mol/L sucrose, 5 mmol/L MgCl2, 0.5% (v/v) NP40], and disrupted by sonication. Cells were centrifuged at 10,000×g for 30 minutes at 4° C. The supernatant was applied to the glutathione-Sepharose column equilibrated with WED buffer [20 mmol/L Tris (pH 7.5), 2 mmol/L MgCl2, 1 mmol/L DTT] followed by washing with WED buffer. GST-ACKD was eluted with 5 mmol/L glutathione solution in 50 mmol/L Tris (pH 9.6). The eluate was dialyzed in WED buffer overnight and concentrated on a sucrose gradient. The expected size of the fusion protein (GST-ACKD) was confirmed by SDS-PAGE (data not shown), and the protein was used for kinase assays as described below.
The purified GST-ACKD (˜5 μg per reaction) was incubated in kinase reaction buffer [50 mmol/L HEPES-KOH (pH 7.2), 10 mmol/L magnesium acetate, 5 mmol/L DTT] containing 7.5 μg MBP, 100 μmol/L ATP, and 4 μCi [γ-^33P]ATP for 10 minutes at 30° C. Reactions were stopped by addition of 5× Laemmli SDS sample buffer. Proteins were separated by SDS-PAGE, and radioactivity incorporated into the substrate was quantified by using the Kodak Imaging Station 2000R. For kinase inhibition experiments, GST-ACKD was preincubated with individual inhibitors in kinase buffer or kinase buffer alone (control) before the addition of MBP following the same protocol as described above. Experiments were done in triplicate.
Several compounds were screened to examine their potency in inhibiting the kinase activity of ACK in vitro. […]
Different kinase inhibitors were added to the ACK-1 kinase reaction as described above in General Procedures. Phosphorylation of MBP was determined by SDS-PAGE and autoradiography. The level of MBP phosphorylation was determined by scanning MBP bands using Kodak Imaging Station 2000R and plotted as arbitrary units. […]

| Molecule | cell cycle arrest [1] | growth of parental NIH 3T3 cells after transfection (parental NIH 3T3 cells) | growth of v-Ha-Ras-transformed cells after transfection [2] | level of ACK-1 at 0.8 nmol/L siRNA (ACK-1; 0.8 nmol/L, v-Ha-Ras-transformed and parental NIH 3T3 cells) | expression of ACK-1 (ACK-1; siRNA 0.16, 0.4 or 0.8 nmol/L, 24 hours, FIGS. 2A and B) | induction of apoptosis (apoptosis markers) [3] | inhibition of kinase activity of ACK (MBP phosphorylation) [4] |
| --- | --- | --- | --- | --- | --- | --- | --- |
| ACK-1 siRNA: annealed 21-nt pair 5′-CAUUACCCGCCUAUCUCAUdTdT-3′ / 5′-AUGAGAUAGGCGGGUAAUGdTdT-3′ corresponding to the 5′ noncoding of ACK-1 cDNA (chain 1 CAUUACCCGCCUAUCUCAUTT; chain 2 AUGAGAUAGGCGGGUAAUGTT; sugars from the 5' end r19 d2, backbone not given here) | did not block v-Ha-Ras-transformed cells at any particular stage of the cell cycle | did not affect the growth of parental NIH 3T3 cells | inhibited the growth of v-Ha-Ras-transformed cells in a dose dependent manner | reduced the level of ACK-1 significantly | reduced the expression of ACK-1 in a dose-dependent manner | induced apoptosis | – |
| O=c1c(-c2ccc(O)cc2)coc2cc(O)cc(O)c12 [genistein] | – | – | – | – | – | – | very weak activity |
| O=c1c(O)c(-c2ccc(O)c(O)c2)oc2cc(O)cc(O)c12 [quercetin] | – | – | – | – | – | – | very weak activity |
